Data as given in the METLIN SMRT retention time set (Domingo-Almenara et al. 2019).

Assay: gradient 5% acetonitrile 3 min, to 50% in 2 min, to 85% in 15 min, held 3 min, 100 µL/min
Settings: column: Zorbax Extend-C18 2.1 x 50 mm; eluents: water / acetonitrile, 0.1% formic acid
Outline: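 Pure standards were run in mixtures of ~100 molecules by HPLC coupled to a quadrupole time-of-flight mass spectrometer. The column was a Zorbax Extend-C18 (2.1 × 50 mm, 1.8 μm) at 100 μL/min, with water and acetonitrile each containing 0.1% formic acid, in positive and negative ionization mode. Dead and dwell volumes were 40 μL and 900 μL. Retention time was taken from computationally picked adduct peaks, each manually inspected, with data collected over 3 months.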

SMILES	RP-LC retention time [s]
Cc1ccc(N2C(=O)c3ccc(C(=O)N4CCN(c5ccccc5F)CC4)cc3C2=O)cc1	982
CCn1ccc(C(=O)N2CC(c3nc(C4CC4)nn3C)C2)n1	610
CC(=O)Nc1ccc(NC(=O)c2nn(-c3ccc(F)cc3)c3ccccc3c2=O)cc1	778
Cc1ccc(-n2nc(N3CCCC(C(=O)NCc4ccc(F)cc4)C3)ccc2=O)cc1Cl (stereo not given)	929
COc1ccc2c(c1)C1(CCN(C(=O)Nc3cccc(F)c3)C1)C(=O)N2 (stereo not given)	683
CC1(C)CC[C@]2(C(=O)n3ccnc3)CC[C@]3(C)[C@H](C(=O)C=C4[C@@]5(C)C=C(C#N)C(=O)C(C)(C)[C@@H]5CC[C@]43C)[C@@H]2C1	1260
Cn1cc(C=O)c2nccnc21	631
Cc1cc(C)c(S(=O)(=O)N2CCc3nc(-c4ccccc4)ncc3C2)cc1C	1230
CSc1ncccc1C(=O)N1CCCn2nc(-c3cccc(Cl)c3)cc2C1	827
Cc1ccc(CNc2nc(-c3nnc(-c4ccccc4)o3)nc3ccccc23)o1	991
Cc1nc(-c2cc3cccc(C)c3nc2NCCc2ccccn2)no1	764
COc1ccc(N2CC(c3noc(-c4cccc(Cl)c4)n3)CC2=O)cc1 (stereo not given)	1030
CCNC(=O)N1CCCC(c2cccc(C(=O)NCCN3CCOCC3)c2)C1 (stereo not given)	577
COc1cccc(CNC(=O)c2ccc3c(c2)nc2n3CCN(C3CCCCC3)C2=O)c1	774
O=C(CNC(=O)Cc1ccccc1)NCC(=O)N1CCCc2ccccc21	710
O=C(c1ccc2c(c1)nnn2CCN1CCOCC1)N1CCN(c2ccccc2)CC1	616
O=C(Nc1ccccc1)N1CCC2(CC1)CC(N1CCOCC1)CCO2 (stereo not given)	583
Cc1ccccc1N1CCN(C(=O)CCC2CCN(c3cc(NC4CC4)ncn3)CC2)CC1	768
O=C(Nc1ccc(C2(C(=O)NCc3ccc(F)cc3Cl)CCC2)cc1)C1CC1	898
Cn1ncc(N2CCC(C(=O)NC3CCCC3)C2)cc1=O (stereo not given)	630
CNC(=O)N1CCCN(C2=NS(=O)(=O)C(c3ccccc3)=C2C)CC1	594
COCCCNC(=O)C(C)n1c(=O)c(C(F)(F)F)nc2cc(C)c(C)cc21 (stereo not given)	1010
O=C(c1ccc(N2CCCC2)nn1)N1CCN(c2ncccn2)CC1	548
CCc1ccccc1N1C(=O)CN(S(=O)(=O)CC)CC1(C)C(=O)NC1CCCCCC1 (stereo not given)	957
CCOC(=O)C1CCCN(Cc2nc3nc(C)cc(N4CCCCCC4)n3n2)C1 (stereo not given)	620
COc1cc([C@@H]2c3cc4c(cc3[C@@H](O[C@@H]3O[C@@H]5COC(c6cccs6)O[C@H]5[C@H](O)[C@H]3O)[C@H]3COC(=O)[C@H]23)OCO4)cc(OC)c1O (stereo not given in full)	780
CCCn1c(=O)c2sc(N3CCCC3)nc2n(CC(=O)Nc2cc(F)cc(F)c2)c1=O	902

The remaining lines, values ahead:

RP-LC retention time [s]	SMILES
1000	COc1ccc(C2(C(=O)Nc3cc(-c4ccco4)no3)CC2)cc1
958	O=C(NCc1ccc(F)cc1)C1CCN(S(=O)(=O)c2cc(-c3noc(C4CC4)n3)cs2)CC1
1170	Cc1ccc(Nc2nc(-c3ccccc3)cs2)cc1
794	CS(=O)(=O)NCc1ccc2c(c1)CCN2C(=O)c1ccc(Cl)cc1
904	CC(C)n1c(N2CCN(C(=O)COc3ccc(F)cc3)CC2)cc(=O)n(C(C)C)c1=O
946	Cc1nc(C(=O)Nc2ccc(C)c(F)c2)c(C)o1
907	CCCN1C(=O)CCc2cc(NS(=O)(=O)c3ccc(CC)cc3)ccc21
994	CCOC(=O)c1ccc(N2C(=O)Cn3cccc3C2C(=O)NC2CCCCC2C)cc1 (stereo not given)
866	CC1(C)C(=O)N(CC(=O)Nc2ccc(F)cc2)c2ccccc21
674	COc1ccc(NC(=O)Cn2nc3c4ccccc4ncn3c2=O)cc1Cl
1170	COc1ccc(-c2noc(-c3nc(Cc4ccc(F)cc4)no3)n2)cc1
580	O=C(c1ccc2nc(-c3ccccc3)cn2c1)N1CCOCC1
875	Cc1nn(CC(=O)N2CCCC(C)C2)c(=O)c2nc(-c3ccccc3)sc12 (stereo not given)
773	O=C(Nc1ccc(-c2nnc3n2CCCC3)cc1)c1ccc2ccccc2n1
580	COc1ccc(OC)c(-c2cc(C(=O)N3CCN(Cc4ccsc4)CC3)n(C)n2)c1
617	CCC(C(=O)NCCN1CCOCC1)n1c2ccccc2c2cnn(C)c(=O)c21 (stereo not given)
556	CCCNc1cc(N2CCC(CCC(=O)NCc3cccnc3)CC2)ncn1
571	COc1cccc(CCC(=O)N(C)C[C@@]23CCC[C@H]2N(C)C(=O)CC3)c1
620	Cc1ccc(-c2nccn3cc(C(=O)N4CCN(C(C)C)CC4)nc23)cc1

RP-LC retention time [s]	SMILES
606	CCc1cccc(NC(=O)N2CCc3nc[nH]c3C2)c1
722	O=C(Nc1cccc(Br)c1)C1CCN(c2cc(N3CCCC3)ncn2)CC1
800	Cc1cccc(Cn2c(=O)n(CCNC(=O)CC(C)C)c3ncccc32)c1
945	CCN(CC)S(=O)(=O)c1ccc2c(c1)N(CC(=O)NCc1ccccc1)C(=O)C1CCCCN21 (stereo not given)
874	Cc1nc(-c2noc(-c3cccc(F)c3)n2)cn1CC(=O)Nc1ccc(F)cc1
594	COc1ccccc1CCC(=O)N1CCn2cnnc2C1
566	O=C(NCCN1CCCCC1)c1csc(-c2ccnc(N3CCOCC3)c2)n1
824	O=C(Nc1cccc(Br)c1)C1CC(=O)N(c2n[nH]c3cccc(F)c23)C1 (stereo not given)
770	O=C(Nc1ccc(C(=O)O)c(O)c1)c1cc2ccccc2c(=O)o1
1200	O=C(Nc1cc(F)ccc1F)c1cc2sccc2n1Cc1ccc(F)cc1
840	CCOc1ccc(N2C(=O)CN(CCc3ccccc3F)[C@H]3CS(=O)(=O)C[C@H]32)cc1
775	CCOc1cc(C(=O)Nc2c(-c3ccccc3)nc3cc(C)ccn23)cc(OCC)c1OCC
998	O=C(NCc1ccc2c(c1)OCO2)C1CCCN(c2ncc(-c3ccc(F)cc3)cn2)C1 (stereo not given)
1120	COc1ccc(CNC(=O)c2cc3c(-c4cccs4)nn(-c4ccccc4)c3n2C)cc1
685	CN(C)CCNC(=O)C1CCN(C(=O)c2cc3ccsc3n2Cc2ccc(Cl)cc2)CC1
898	CC(C)C(=O)n1nc(-c2ccccc2Cl)nc1N
1090	CCOC(=O)C(=O)Nc1c(C(=O)Nc2cccc(Cl)c2)oc2ccccc12
678	CCOC(=O)CC(=O)CSc1nnc(CNC(=O)c2ccc(F)cc2)o1
1410	CCCN(C(=O)CC)c1nc(-c2ccc(Br)cc2)cs1
